Assay results: US20110212968A1, “PHENETHYLAMIDE DERIVATIVES AND THEIR HETEROCYCLIC ANALOGUES” (priority 2008, published 2011)
One block for each compound: values may come before it.

How the values were obtained:
[1] = biological target: T1, human orexin-2 receptor (Homo sapiens, UniProt O43614); experiment: Intracellular calcium measurement (FLIPR Tetra), orexin receptor antagonistic activity, OX2; format: cell-based; settings: CHO cells expressing human orexin-2 receptor, 3 nM orexin-A
T1 construct: expressed in transfected cells; host or cells: CHO (Chinese hamster ovary) cells, kept under G418 selection
T1 sequence (O43614 1-444): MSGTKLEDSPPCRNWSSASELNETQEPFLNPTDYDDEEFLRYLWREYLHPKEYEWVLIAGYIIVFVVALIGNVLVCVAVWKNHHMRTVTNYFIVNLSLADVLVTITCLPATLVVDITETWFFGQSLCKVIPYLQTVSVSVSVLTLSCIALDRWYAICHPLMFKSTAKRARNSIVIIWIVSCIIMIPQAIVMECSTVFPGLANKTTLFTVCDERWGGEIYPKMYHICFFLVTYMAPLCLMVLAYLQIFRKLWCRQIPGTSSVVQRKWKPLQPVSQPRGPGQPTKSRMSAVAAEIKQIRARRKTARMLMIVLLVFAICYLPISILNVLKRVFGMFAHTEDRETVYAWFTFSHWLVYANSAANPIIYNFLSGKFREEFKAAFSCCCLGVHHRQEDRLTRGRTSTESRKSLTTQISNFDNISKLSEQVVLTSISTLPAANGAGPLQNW
Method: (§1) The orexin receptor antagonistic activity of the compounds of formula (I) is determined in accordance with one of the following experimental methods.
(§2) Chinese hamster ovary (CHO) cells expressing the human orexin-1 receptor and the human orexin-2 receptor, respectively, are grown in culture medium (Ham F-12 with L-Glutamine) containing 300 μg/ml G418, 100 U/ml penicillin, 100 μg/ml streptomycin and 10% heat inactivated fetal calf serum (FCS). The cells are seeded at 20,000 cells/well into 384-well black clear bottom sterile plates (Greiner). The seeded plates are incubated overnight at 37° C. in 5% CO2.
(§3) Human orexin-A as an agonist is prepared as 1 mM stock solution in MeOH:water (1:1), diluted in HBSS containing 0.1% bovine serum albumin (BSA), NaHCO3: 0.375 g/l and 20 mM HEPES for use in the assay at a final concentration of 3 nM. Antagonists are prepared as 10 mM stock solution in DMSO, then diluted in 384-well plates, first in DMSO, then in HBSS containing 0.1% bovine serum albumin (BSA), NaHCO3: 0.375 g/l and 20 mM HEPES.
(§4) On the day of the assay, 50 μl of staining buffer (HBSS containing 1% FCS, 20 mM HEPES, NaHCO3: 0.375 g/l, 5 mM probenecid (Sigma) and 3 μM of the fluorescent calcium indicator fluo-4 AM (1 mM stock solution in DMSO, containing 10% pluronic) is added to each well.
(§5) The 384-well cell-plates are incubated for 50 min at 37° C. in 5% CO2 followed by equilibration at RT for 30-120 min before measurement.
(§6) Within the Fluorescent Imaging Plate Reader (FLIPR Tetra, Molecular Devices), antagonists are added to the plate in a volume of 10 μl/well, incubated for 10 min and finally 10 μl/well of agonist is added. Fluorescence is measured for each well at 1 second intervals, and the height of each fluorescence peak is compared to the height of the fluorescence peak induced by 3 nM orexin-A with vehicle in place of antagonist. For each antagonist, the IC50 value (the concentration of compound needed to inhibit 50% of the agonistic response) is determined and may be normalized using the obtained IC50 value of a on-plate reference compound (normalized values in Table 1 are indicated by an asterisk *). With the FLIPR Tetra, two different conditions (conditions A and conditions B) were used, differing in adjustment of pipetting speed and cell splitting regime. The calculated IC50 values of the compounds may fluctuate depending on the daily cellular assay performance. Fluctuations of this kind are known to those skilled in the art.

[2] = biological target: T2, human orexin-1 receptor (Homo sapiens, UniProt O43613); experiment: Intracellular calcium measurement (FLIPR Tetra), orexin receptor antagonistic activity, OX1; format: cell-based; settings: CHO cells expressing human orexin-1 receptor, 3 nM orexin-A
T2 construct: expressed in transfected cells; host or cells: CHO (Chinese hamster ovary) cells, kept under G418 selection
T2 sequence (O43613 1-425): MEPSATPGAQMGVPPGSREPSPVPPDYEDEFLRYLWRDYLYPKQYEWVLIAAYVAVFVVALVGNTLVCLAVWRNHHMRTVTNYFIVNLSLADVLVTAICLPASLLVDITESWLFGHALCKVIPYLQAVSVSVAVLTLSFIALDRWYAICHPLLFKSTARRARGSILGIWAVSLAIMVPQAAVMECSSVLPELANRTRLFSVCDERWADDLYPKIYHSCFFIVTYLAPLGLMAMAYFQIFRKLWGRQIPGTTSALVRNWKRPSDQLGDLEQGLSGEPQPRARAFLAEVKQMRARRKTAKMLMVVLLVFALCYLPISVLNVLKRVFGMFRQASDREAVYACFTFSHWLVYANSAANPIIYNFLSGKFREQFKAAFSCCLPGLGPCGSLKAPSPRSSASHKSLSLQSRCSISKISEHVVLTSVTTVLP
Method: as §1, §2, §3, §4, §5, §6

[3] = conditions B, normalized (*) using IC50 of on-plate reference compound

- IC50 ([1]; conditions B): 75 nM
- IC50 ([2]; conditions B): 234 nM
Compound: 2-Methyl-5-m-tolyl-thiazole-4-carboxylic acid [2-cyclopropyl-amino-2-(3,4-dimethoxy-phenyl)-ethyl]-cyclopropylmethyl-amide [Example 432]

- IC50 [1, 3]: 25 nM
- IC50 [2, 3]: 23 nM
Compound: COc1ccc2[nH]cc(CC(C)N(CC3CC3)C(=O)c3nc(C)sc3-c3ccc(OC)nc3)c2c1 (racemic) [Example 385]

- IC50 ([1]; conditions A): 5 nM
- IC50 ([2]; conditions A): 2690 nM
Compound: COc1ccc(CCN(CC2CC2)C(=O)c2ncsc2-c2ccccc2F)cc1OC [Example 37, 5-(2-Fluoro-phenyl)-thiazole-4-carboxylic acid cyclopropylmethyl-[2-(3,4-dimethoxy-phenyl)-ethyl]-amide]

- IC50 ([1]; conditions A): 10 nM
- IC50 ([2]; conditions A): > 10000 nM
Compound: COc1ccc(CCN(CC2CC2)C(=O)c2sc(C)nc2-c2ccc(F)cc2)cc1OC [Example 50, 4-(4-Fluoro-phenyl)-2-methyl-thiazole-5-carboxylic acid cyclopropylmethyl-[2-(3,4-dimethoxy-phenyl)-ethyl]-amide]

- IC50 ([1]; conditions A): 551 nM
- IC50 ([2]; conditions A): > 10000 nM
Compound: COc1ccc(C(O)CN(CC2CC2)C(=O)c2ncsc2-c2cccc(C(F)(F)F)c2)cc1OC (stereo not drawn) [Example 85, 5-(3-Trifluoromethyl-phenyl)-thiazole-4-carboxylic acid cyclopropylmethyl-[2-(3,4-dimethoxy-phenyl)-2-hydroxy-ethyl]-amide]

- IC50 ([1]; conditions A): 263 nM
- IC50 ([2]; conditions A): 4920 nM
Compound: COc1ccc(C(O)CN(CC2CC2)C(=O)c2c(-c3ccccc3)nc3ccc(Cl)cn23)cc1OC (stereo not drawn) [Example 97, 6-Chloro-2-phenyl-imidazo[1,2-a]pyridine-3-carboxylic acid cyclopropylmethyl-[2-(3,4-dimethoxy-phenyl)-2-hydroxy-ethyl]-amide]

- IC50 ([1]; conditions A): 41 nM
- IC50 ([2]; conditions A): > 10000 nM
Compound: COc1ccc(C(O)CN(CC2CC2)C(=O)c2nccnc2-c2ccccc2)cc1OC (stereo not drawn) [Example 99, 3-Phenyl-pyrazine-2-carboxylic acid cyclopropylmethyl-[2-(3,4-dimethoxy-phenyl)-2-hydroxy-ethyl]-amide]

The remaining lines, values behind:

Compound: COc1ccc(CCN(CC2CC2)C(=O)c2nc(C)sc2-c2ccccc2)cc1OC [Example 18, 2-Methyl-5-phenyl-thiazole-4-carboxylic acid cyclopropylmethyl-[2-(3,4-dimethoxy-phenyl)-ethyl]-amide]
- IC50 ([1]; conditions A): 4 nM
- IC50 ([2]; conditions A): 925 nM

Compound: COc1ccc(CCN(CC2CC2)C(=O)c2nc(C)sc2-c2cccc(C#N)c2)cc1OC [Example 19, 5-(3-Cyano-phenyl)-2-methyl-thiazole-4-carboxylic acid cyclopropylmethyl-[2-(3,4-dimethoxy-phenyl)-ethyl]-amide]
- IC50 ([1]; conditions A): 40 nM
- IC50 ([2]; conditions A): 2200 nM

Compound: CCc1ccc(-c2sc(C)nc2C(=O)N(CCc2ccc(OC)c(OC)c2)CC2CC2)cc1 [Example 20, 5-(4-Ethyl-phenyl)-2-methyl-thiazole-4-carboxylic acid cyclopropylmethyl-[2-(3,4-dimethoxy-phenyl)-ethyl]-amide]
- IC50 ([1]; conditions A): 15 nM
- IC50 ([2]; conditions A): 2130 nM

Compound: COc1ccc(CCN(CC2CC2)C(=O)c2nc(C3CC3)sc2-c2ccccc2)cc1OC [Example 22, 2-Cyclopropyl-5-phenyl-thiazole-4-carboxylic acid cyclopropylmethyl-[2-(3,4-dimethoxy-phenyl)-ethyl]-amide]
- IC50 ([1]; conditions A): 35 nM
- IC50 ([2]; conditions A): 570 nM

Compound: COc1ccc(CCN(CC2CC2)C(=O)c2nc(N(C)C)sc2-c2cccc(C)c2)cc1OC [Example 30, 2-Dimethylamino-5-m-tolyl-thiazole-4-carboxylic acid cyclopropylmethyl-[2-(3,4-dimethoxy-phenyl)-ethyl]-amide]
- IC50 ([1]; conditions A): 30 nM
- IC50 ([2]; conditions A): 206 nM

Compound: COc1cccc(-c2oc(C)nc2C(=O)N(CCc2ccc(OC)c(OC)c2)CC2CC2)c1 [Example 42, 5-(3-Methoxy-phenyl)-2-methyl-oxazole-4-carboxylic acid cyclopropylmethyl-[2-(3,4-dimethoxy-phenyl)-ethyl]-amide]
- IC50 ([1]; conditions A): 20 nM
- IC50 ([2]; conditions A): 1010 nM

Compound: COc1ccc(CCN(CC2CC2)C(=O)c2nc(C)oc2-c2cccc(C(F)(F)F)c2)cc1OC [Example 43, 2-Methyl-5-(3-trifluoromethyl-phenyl)-oxazole-4-carboxylic acid cyclopropylmethyl-[2-(3,4-dimethoxy-phenyl)-ethyl]-amide]
- IC50 ([1]; conditions A): 18 nM
- IC50 ([2]; conditions A): 3120 nM

Compound: COc1ccc(CCN(CC2CC2)C(=O)c2sc(C)nc2-c2ccc(Cl)cc2)cc1OC [Example 48, 4-(4-Chloro-phenyl)-2-methyl-thiazole-5-carboxylic acid cyclopropylmethyl-[2-(3,4-dimethoxy-phenyl)-ethyl]-amide]
- IC50 ([1]; conditions A): 17 nM
- IC50 ([2]; conditions A): 4920 nM

Compound: COc1ccc(CCN(CC2CC2)C(=O)c2sc(C)nc2-c2ccc(C)cc2)cc1OC [Example 49, 2-Methyl-4-p-tolyl-thiazole-5-carboxylic acid cyclopropylmethyl-[2-(3,4-dimethoxy-phenyl)-ethyl]-amide]
- IC50 ([1]; conditions A): 22 nM
- IC50 ([2]; conditions A): 4230 nM

Compound: COc1ccc(CCN(CC2CC2)C(=O)c2c(-c3ccccc3)nnc3ccccc23)cc1OC [Example 51, 3-Phenyl-cinnoline-4-carboxylic acid cyclopropylmethyl-[2-(3,4-dimethoxy-phenyl)-ethyl]-amide]
- IC50 ([1]; conditions A): 34 nM
- IC50 ([2]; conditions A): 1440 nM

Compound: COc1ccc(CCN(CC2CC2)C(=O)c2snnc2-c2ccccc2)cc1OC [Example 53, 4-Phenyl-[1,2,3]thiadiazole-5-carboxylic acid cyclopropylmethyl-[2-(3,4-dimethoxy-phenyl)-ethyl]-amide]
- IC50 ([1]; conditions A): 81 nM
- IC50 ([2]; conditions A): 8670 nM

Compound: COc1ccc(C(O)CN(CC2CC2)C(=O)c2nc(Br)sc2-c2cccc(C)c2)cc1OC (stereo not drawn) [Example 56, 2-Bromo-5-m-tolyl-thiazole-4-carboxylic acid cyclopropylmethyl-[2-(3,4-dimethoxy-phenyl)-2-hydroxy-ethyl]-amide]
- IC50 ([1]; conditions A): 299 nM
- IC50 ([2]; conditions A): 697 nM

Compound: COc1nc(C(=O)N(CC2CC2)CC(O)c2ccc(OC)c(OC)c2)c(-c2cccc(C)c2)s1 (stereo not drawn) [Example 78, 2-Methoxy-5-m-tolyl-thiazole-4-carboxylic acid cyclopropylmethyl-[2-(3,4-dimethoxy-phenyl)-2-hydroxy-ethyl]-amide]
- IC50 ([1]; conditions A): 141 nM
- IC50 ([2]; conditions A): 1120 nM

Compound: COc1ccc(C(O)CN(CC2CC2)C(=O)c2nc(N(C)C)sc2-c2cccc(C)c2)cc1OC (stereo not drawn) [Example 79, 2-Dimethylamino-5-m-tolyl-thiazole-4-carboxylic acid cyclopropylmethyl-[2-(3,4-dimethoxy-phenyl)-2-hydroxy-ethyl]-amide]
- IC50 ([1]; conditions A): 158 nM
- IC50 ([2]; conditions A): 276 nM
